Like-named read-outs stand apart in the source and are kept apart here.
Experiments:
PARP-2 = biological target: T1, PARP-2 (Homo sapiens, UniProt Q9UGN5); experiment: PARP-2 inhibition assay (PARP-2 Chemiluminescent Assay Kit, BPS Bioscience); format: biochemical; conditions: for inhibition at 0.01 µM: 10 nM compound
T1 construct: purchased BPS Bioscience 80552
Protocol: (§1) The PARP-1 and PARP-2 inhibition assays were performed in outsourcing, by a CRO company, Shanghai Medicilon Inc. (Shanghai, China). […] Briefly, PARP-1 or PARP-2 biotinylated substrate was incubated with compounds or solvent control at varying concentrations and an assay buffer containing the PARP-1 or PARP-2 enzyme.

PARP-1 = biological target: T2, PARP-1 (Homo sapiens, UniProt P09874); experiment: PARP-1 inhibition assay (PARP-1 Chemiluminescent Assay Kit, BPS Bioscience); format: biochemical; conditions: for inhibition at 0.01 µM: 10 nM compound
T2 construct: purchased BPS Bioscience 80569
Protocol: as §1

[1] = tested on: CAPAN-1 (a BRCA-2-mutated pancreatic cancer cell line); experiment: Cell proliferation assay, three-day, CellTiter-Glo, CAPAN-1; format: cell-based; conditions: for IC50 / inhibition at 0.00508 µM / inhibition at 0.0152 µM / inhibition at 0.0457 µM / inhibition at […] / inhibition at 0.41 µM / inhibition at 1.23 µM / inhibition at 3.7 µM / inhibition at 11.11 µM / inhibition at 33.33 µM / inhibition at 100 µM: Homo sapiens; for inhibition at 0.00508 µM: CAPAN-1, 0.00508 uM; for inhibition at 0.0152 µM: CAPAN-1, 0.0152 uM; for inhibition at 0.0457 µM: CAPAN-1, 0.0457 uM; for inhibition at […]: CAPAN-1, 0.14 uM; for inhibition at 0.41 µM: CAPAN-1, 0.41 uM; for inhibition at 1.23 µM: CAPAN-1, 1.23 uM; for inhibition at 3.7 µM: CAPAN-1, 3.70 uM; for inhibition at 11.11 µM: CAPAN-1, 11.11 uM; for inhibition at 33.33 µM: CAPAN-1, 33.33 uM; for inhibition at 100 µM: CAPAN-1, 100.00 uM
In short: (§2)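 Cells seeded overnight in 384-well plates, then exposed to compounds (DMSO stock diluted in medium) for 72 h at 37 °C, 5% CO2. Viability read as CellTiter-Glo luminescence after 60 min at room temperature.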

[2] = tested on: MDA-MB-436 (a BRCA-1-mutated breast cancer cell line); experiment: Cell proliferation assay, three-day, CellTiter-Glo, MDA-MB-436; format: cell-based; conditions: for inhibition at 0.00508 µM / inhibition at 0.0152 µM / inhibition at 0.0457 µM / inhibition at 0.41 µM / inhibition at 1.23 µM / inhibition at 3.7 µM / inhibition at 11.11 µM / inhibition at 33.33 µM / inhibition at 100 µM / IC50: Homo sapiens; for inhibition at 0.00508 µM: MDA-MB-436, MDA-MB-436, Conc. 0.00508 uM; for inhibition at 0.0152 µM: MDA-MB-436, MDA-MB-436, Conc. 0.0152 uM; for inhibition at 0.0457 µM: MDA-MB-436, MDA-MB-436, Conc. 0.0457 uM; for inhibition at 0.41 µM: MDA-MB-436, MDA-MB-436, Conc. 0.41 uM; for inhibition at 1.23 µM: MDA-MB-436, MDA-MB-436, Conc. 1.23 uM; for inhibition at 3.7 µM: MDA-MB-436, MDA-MB-436, Conc. 3.70 uM; for inhibition at 11.11 µM: MDA-MB-436, MDA-MB-436, Conc. 11.11 uM; for inhibition at 33.33 µM: MDA-MB-436, MDA-MB-436, Conc. 33.33 uM; for inhibition at 100 µM: MDA-MB-436, MDA-MB-436, Conc. 100.00 uM
In short: as §2

T2 sequence (P09874 whole entry): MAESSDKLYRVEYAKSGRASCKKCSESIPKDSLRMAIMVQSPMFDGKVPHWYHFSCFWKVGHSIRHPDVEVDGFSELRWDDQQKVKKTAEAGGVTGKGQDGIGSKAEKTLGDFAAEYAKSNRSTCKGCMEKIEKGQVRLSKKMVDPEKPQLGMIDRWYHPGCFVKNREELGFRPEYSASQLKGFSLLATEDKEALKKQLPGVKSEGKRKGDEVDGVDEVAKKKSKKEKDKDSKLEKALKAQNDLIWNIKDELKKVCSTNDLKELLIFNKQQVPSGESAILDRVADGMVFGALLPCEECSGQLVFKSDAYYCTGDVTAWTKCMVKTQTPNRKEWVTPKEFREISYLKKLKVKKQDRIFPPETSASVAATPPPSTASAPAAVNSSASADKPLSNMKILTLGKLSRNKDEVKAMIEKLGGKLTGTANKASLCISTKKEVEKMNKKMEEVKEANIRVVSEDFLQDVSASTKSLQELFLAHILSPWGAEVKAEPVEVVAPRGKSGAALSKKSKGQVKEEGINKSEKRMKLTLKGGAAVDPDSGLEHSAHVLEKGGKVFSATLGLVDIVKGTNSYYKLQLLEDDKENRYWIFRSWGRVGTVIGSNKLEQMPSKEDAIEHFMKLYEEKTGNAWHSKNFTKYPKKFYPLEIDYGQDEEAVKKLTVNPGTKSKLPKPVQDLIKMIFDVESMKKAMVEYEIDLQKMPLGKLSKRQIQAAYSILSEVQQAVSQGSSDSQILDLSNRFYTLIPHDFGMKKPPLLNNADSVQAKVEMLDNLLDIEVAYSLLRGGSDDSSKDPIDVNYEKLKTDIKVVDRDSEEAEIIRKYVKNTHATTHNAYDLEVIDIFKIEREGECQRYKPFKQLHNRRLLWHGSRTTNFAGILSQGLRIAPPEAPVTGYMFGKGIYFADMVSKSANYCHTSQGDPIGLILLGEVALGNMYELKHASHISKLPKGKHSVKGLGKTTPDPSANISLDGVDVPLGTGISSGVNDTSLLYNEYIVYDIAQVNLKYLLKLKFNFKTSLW
T1 sequence (Q9UGN5 whole entry): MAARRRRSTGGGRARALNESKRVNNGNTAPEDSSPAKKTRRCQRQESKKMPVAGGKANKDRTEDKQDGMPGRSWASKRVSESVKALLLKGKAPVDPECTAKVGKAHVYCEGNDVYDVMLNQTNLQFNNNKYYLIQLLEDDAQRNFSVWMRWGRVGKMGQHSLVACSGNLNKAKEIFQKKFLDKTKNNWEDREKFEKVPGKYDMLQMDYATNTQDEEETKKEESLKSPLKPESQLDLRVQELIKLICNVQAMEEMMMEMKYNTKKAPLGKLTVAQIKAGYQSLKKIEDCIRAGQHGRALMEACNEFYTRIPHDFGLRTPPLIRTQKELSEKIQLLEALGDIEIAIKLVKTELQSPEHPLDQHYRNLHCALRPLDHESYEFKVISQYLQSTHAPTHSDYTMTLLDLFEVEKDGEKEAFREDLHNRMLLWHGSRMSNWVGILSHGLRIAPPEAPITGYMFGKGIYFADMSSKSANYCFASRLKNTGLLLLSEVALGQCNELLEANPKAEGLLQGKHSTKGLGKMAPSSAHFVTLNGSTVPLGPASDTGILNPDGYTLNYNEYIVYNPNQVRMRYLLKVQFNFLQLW

NC(=O)c1cccc2[nH]c(C3CCN(CCCC(=O)c4ccccc4)C3)nc12 (centres unmarked) [Compound 5cc, 2-(1-(4-Oxo-4-phenylbutyl)pyrrolidin-3-yl)-1H-benzo[d]imidazole-4-carboxamide]
inhibition at 0.01 µM (PARP-2; supplement sheet, read-out: 10 nM inhibition% PAPR-2): 62.3%
inhibition at 0.01 µM (PARP-2; read-out: PARP-2 Inhibition % (10 nM)): 62.3%
IC50 (PARP-2; read-out: PARP-2 IC50): 0.0058 µM
IC50 (PARP-2; supplement sheet, read-out: IC50 PAPR-2): 0.00576 µM
inhibition at 0.01 µM (PARP-1; supplement sheet, read-out: 10 nM inhibition% PAPR-1): 42.8%
inhibition at 0.01 µM (PARP-1; read-out: PARP-1 Inhibition % (10 nM)): 42.8%
IC50 (PARP-1; read-out: PARP-1 IC50): 0.0122 µM
IC50 (PARP-1; supplement sheet, read-out: IC50 PAPR-1): 0.0122 µM
LogIC50 ([1]; CAPAN-1, curve-fit output, Log (uM)): 1.317
IC50 ([1]; CAPAN-1, 72 h, CellTiter-Glo, read-out: CAPAN-1 IC50): 20.7 µM
inhibition at 0.00508 µM ([1]; replicate 1, read-out: Inh % 1): -7.2%
inhibition at 0.00508 µM ([1]; replicate 2, read-out: Inh % 2): 1.2%
inhibition at 0.0152 µM ([1]; replicate 1, read-out: Inh % 1): 1.3%
inhibition at 0.0152 µM ([1]; replicate 2, read-out: Inh % 2): 4.1%
inhibition at 0.0457 µM ([1]; replicate 1, read-out: Inh % 1): 1.4%
inhibition at 0.0457 µM ([1]; replicate 2, read-out: Inh % 2): 9%
inhibition at […] ([1]; replicate 1, read-out: Inh % 1): 8.1%
inhibition at […] ([1]; replicate 2, read-out: Inh % 2): 7.4%
inhibition at 0.41 µM ([1]; replicate 1, read-out: Inh % 1): 22.4%
inhibition at 0.41 µM ([1]; replicate 2, read-out: Inh % 2): 6.9%
inhibition at 1.23 µM ([1]; replicate 1, read-out: Inh % 1): 18%
inhibition at 1.23 µM ([1]; replicate 2, read-out: Inh % 2): 5.8%
inhibition at 3.7 µM ([1]; replicate 1, read-out: Inh % 1): 5.7%
inhibition at 3.7 µM ([1]; replicate 2, read-out: Inh % 2): 1.6%
inhibition at 11.11 µM ([1]; replicate 1, read-out: Inh % 1): 14.5%
inhibition at 11.11 µM ([1]; replicate 2, read-out: Inh % 2): 8.2%
inhibition at 33.33 µM ([1]; replicate 1, read-out: Inh % 1): 93.8%
inhibition at 33.33 µM ([1]; replicate 2, read-out: Inh % 2): 86.5%
inhibition at 100 µM ([1]; replicate 1, read-out: Inh % 1): 100%
inhibition at 100 µM ([1]; replicate 2, read-out: Inh % 2): 99.5%
IC50 ([1]; CAPAN-1, 72 h, supplement Summary sheet, read-out: IC50): 20.7 µM
IC50 ([1]; CAPAN-1, curve-fit output, concentrations in uM, read-out: IC50): 20.7 µM
inhibition at 0.00508 µM ([2]; replicate 1, read-out: Inh % 1): -5%
inhibition at 0.00508 µM ([2]; replicate 2, read-out: Inh % 2): -0.000277%
inhibition at 0.0152 µM ([2]; replicate 1, read-out: Inh % 1): -5.6%
inhibition at 0.0152 µM ([2]; replicate 2, read-out: Inh % 2): -6.4%
inhibition at 0.0457 µM ([2]; replicate 1, read-out: Inh % 1): -12.8%
inhibition at 0.0457 µM ([2]; replicate 2, read-out: Inh % 2): -9.3%
inhibition at 0.41 µM ([2]; replicate 1, read-out: Inh % 1): -7.7%
inhibition at 0.41 µM ([2]; replicate 2, read-out: Inh % 2): -9%
inhibition at 1.23 µM ([2]; replicate 1, read-out: Inh % 1): -9.6%
inhibition at 1.23 µM ([2]; replicate 2, read-out: Inh % 2): -10.8%
inhibition at 3.7 µM ([2]; replicate 1, read-out: Inh % 1): -9.3%
inhibition at 3.7 µM ([2]; replicate 2, read-out: Inh % 2): -9.7%
inhibition at 11.11 µM ([2]; replicate 1, read-out: Inh % 1): -6.6%
inhibition at 11.11 µM ([2]; replicate 2, read-out: Inh % 2): -8.1%
inhibition at 33.33 µM ([2]; replicate 1, read-out: Inh % 1): 62%
inhibition at 33.33 µM ([2]; replicate 2, read-out: Inh % 2): 38.7%
inhibition at 100 µM ([2]; replicate 1, read-out: Inh % 1): 99.6%
inhibition at 100 µM ([2]; replicate 2, read-out: Inh % 2): 99.3%
IC50 ([2]; MDA-MB-436, 72 h, CellTiter-Glo, read-out: MDA-MB-436 IC50): 31.9 µM
IC50 ([2]; MDA-MB-436, 72 h, supplement Summary sheet, read-out: IC50): 31.9 µM
IC50 ([2]; MDA-MB-436, curve fit list, no unit in the cell, concentration in uM, read-out: IC50): 31.9 µM
LogIC50 ([2]; MDA-MB-436, curve fit on Log (uM) concentrations): 1.504
Bottom ([2]; MDA-MB-436, curve fit parameter (Inh %)): -8.27
Top ([2]; MDA-MB-436, curve fit parameter (Inh %), '= 100.0' is a constrained value): 100

— publication PMC6572064, “Discovery of 2-(1-(3-(4-Chloroxyphenyl)-3-oxo- propyl)pyrrolidine-3-yl)-1H-benzo[d]imidazole-4-carboxamide: A Potent Poly(ADP-ribose) Polymerase (PARP) Inhibitor for Treatment of Cancer” (Molecules, 2019)
